Structures are written as SMILES.

A word on the IC50: it is the point on the concentration scale where inhibition reaches its midpoint. Low values mean higher potency, high ones lower potency.

The assay is described as follows: Inhibition of human platelet aggregation.
`CC(C)[C@H](NC(=O)[C@H](CC(=O)O)NC(=O)CNC(=O)C=Cc1ccc(N=C(N)N)cc1)C(=O)O` [(S)-2-((S)-3-Carboxy-2-{2-[(E)-3-(4-guanidino-phenyl)-acryloylamino]-acetylamino}-propionylamino)-3-methyl-butyric acid] had a half-maximal inhibitory concentration (IC50) of 6600 nM. This counts as single-digit micromolar.
Compound `CC(C)[C@H](NC(=O)[C@H](CC(=O)O)NC(=O)CCNC(=O)C=Cc1ccc(N=C(N)N)cc1)C(=O)O` [(S)-2-((S)-3-Carboxy-2-{3-[(E)-3-(4-guanidino-phenyl)-acryloylamino]-propionylamino}-propionylamino)-3-methyl-butyric acid] displayed a concentration for half-maximal inhibition (IC50) of 2000 nM.
`CC(C)[C@H](NC(=O)[C@H](CC(=O)O)NC(=O)C[C@H]1CCCN1C(=O)C=Cc1ccc(N=C(N)N)cc1)C(=O)O` [(S)-2-[(S)-3-Carboxy-2-(2-{(R)-1-[(E)-3-(4-guanidino-phenyl)-acryloyl]-pyrrolidin-2-yl}-acetylamino)-propionylamino]-3-methyl-butyric acid] had an IC50 of 25000 nM.
`CC(C)[C@H](NC(=O)[C@H](CC(=O)O)NC(=O)C[C@@H]1CCCCN1C(=O)C=Cc1ccc(N=C(N)N)cc1)C(=O)O` [(S)-2-[(S)-3-Carboxy-2-(2-{(S)-1-[(E)-3-(4-guanidino-phenyl)-acryloyl]-piperidin-2-yl}-acetylamino)-propionylamino]-3-methyl-butyric acid] had an IC50 of 1600 nM.
`CC(C)[C@H](NC(=O)[C@H](CC(=O)O)NC(=O)C[C@@H]1CCCN1C(=O)C=Cc1ccc(N=C(N)N)cc1)C(=O)O` [(S)-2-[(S)-3-Carboxy-2-(2-{(S)-1-[(E)-3-(4-guanidino-phenyl)-acryloyl]-pyrrolidin-2-yl}-acetylamino)-propionylamino]-3-methyl-butyric acid] showed a 50% inhibitory concentration (IC50) of 96 nM.
As for `CC(C)[C@H](NC(=O)[C@H](CC(=O)O)NC(=O)CCN(C)C(=O)C=Cc1ccc(N=C(N)N)cc1)C(=O)O` [(S)-2-[(S)-3-Carboxy-2-(3-{[(E)-3-(4-guanidino-phenyl)-acryloyl]-methyl-amino}-propionylamino)-propionylamino]-3-methyl-butyric acid], the half-maximal inhibitory concentration (IC50) came out at 500 nM. Compared with the last compound, the IC50 is about 5.2-fold higher.
Then `CCN(CCC(=O)N[C@@H](CC(=O)O)C(=O)N[C@H](C(=O)O)C(C)C)C(=O)C=Cc1ccc(N=C(N)N)cc1` [(S)-2-[(S)-3-Carboxy-2-(3-{ethyl-[(E)-3-(4-guanidino-phenyl)-acryloyl]-amino}-propionylamino)-propionylamino]-3-methyl-butyric acid], with 410 nM; and `CC(C)[C@H](NC(=O)[C@H](CC(=O)O)NC(=O)[C@@H]1CCCN(C(=O)C=Cc2ccc(N=C(N)N)cc2)C1)C(=O)O` [(S)-2-[(S)-3-Carboxy-2-({(R)-1-[(E)-3-(4-guanidino-phenyl)-acryloyl]-piperidine-3-carbonyl}-amino)-propionylamino]-3-methyl-butyric acid], with 180 nM.
Then `CC(C)[C@H](NC(=O)[C@H](CC(=O)O)NC(=O)[C@@H]1CCN(C(=O)C=Cc2ccc(N=C(N)N)cc2)C1)C(=O)O` [(S)-2-[(S)-3-Carboxy-2-({(R)-1-[(E)-3-(4-guanidino-phenyl)-acryloyl]-pyrrolidine-3-carbonyl}-amino)-propionylamino]-3-methyl-butyric acid], with 65 nM; and `CC(C)[C@H](NC(=O)[C@H](CC(=O)O)NC(=O)[C@H]1CCCN(C(=O)C=Cc2ccc(N=C(N)N)cc2)C1)C(=O)O` [(S)-2-[(S)-3-Carboxy-2-({(S)-1-[(E)-3-(4-guanidino-phenyl)-acryloyl]-piperidine-3-carbonyl}-amino)-propionylamino]-3-methyl-butyric acid], with 620 nM; and `CC(C)[C@H](NC(=O)[C@H](CC(=O)O)NC(=O)[C@H]1CCN(C(=O)C=Cc2ccc(N=C(N)N)cc2)C1)C(=O)O` [(S)-2-[(S)-3-Carboxy-2-({(S)-1-[(E)-3-(4-guanidino-phenyl)-acryloyl]-pyrrolidine-3-carbonyl}-amino)-propionylamino]-3-methyl-butyric acid], with 3300 nM.

These data come from BindingDB's records for doi:10.1016/S0960-894X(97)00311-9 (n/a, 1997).
